Data taken from patent US20250257041A1, “INDUCERS OF INTEGRATED STRESS RESPONSE TO TREAT CANCER” (The Board of Regents of The University of Texas System, priority 2022, published 2025).
Where two headings read alike, the source gives them in different places.

Columns and labels:
HCT116 GCN2KO = assay: Proliferation of HCT116 cells with GCN2 knocked out (CRISPR), Cell TiterGlo; type: cell-based, human; settings: Homo sapiens, HCT-116; HCT116 cells with GCN2 knocked out using CRISPR; read-out: HCT116 IC50 (uM) HCT116 − GCN2KO
Experimental: Briefly, compounds were tested for their effect on proliferation of HCT116 colorectal cell lines using Cell TiterGlo (Promega). Each compound was tested in a 10-point dose response experiment in triplicate. Multiple values in the column titled HCT116 WT reflect separate independent experiments. The three columns titled “HCT116 WT (repeat)”, “HCT116-CGN2KO” and “HCT116 WT+ISRIB” provide data for selected compounds that were tested simultaneously under three conditions. The HCT116 WT column lists IC50 against the wild type HCT116 colorectal cancer cell line. The HCT116-CGN2KO lists IC50 data for cells in which one component of the integrated stress response, GCN2, has been knocked out using CRISPR technology.

HCT116 WT = assay: Proliferation of HCT116 colorectal cell line, Cell TiterGlo; type: cell-based, human
Method in brief: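 HCT116 colorectal cells, wild type, GCN2 CRISPR knockout, or wild type plus ISRIB; proliferation read by CellTiter-Glo luminescence. 10-point dose response in triplicate, IC50 reported; multiple values are independent experiments.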

[1] = Homo sapiens, HCT-116, wild type HCT116, 10-point dose response in triplicate, multiple values = separate independent experiments, read-out: HCT116 IC50 (uM) HCT116 WT
[2] = Homo sapiens, HCT-116, wild type HCT116, tested simultaneously with GCN2KO and +ISRIB, read-out: HCT116 IC50 (uM) HCT116 WT (repeat)
[3] = wild type HCT116, compound plus 10 nM of ISRIB, read-out: HCT116 IC50 (uM) HCT116 WT + ISRIB

Row | SMILES | IC50 (HCT116 GCN2KO) | IC50 (HCT116 WT; [1]) | IC50 (HCT116 WT; [2]) | IC50 (HCT116 WT; [3]) | HCT116 IC50 (uM) HCT116 WT (HCT116 WT; wild type HCT116, 10-point dose response in triplicate, multiple values = separate independent experiments)
1 | Cn1nc(-c2ccc(NC(=O)c3cccc(C#N)c3)cc2)cc1NC(=O)c1ccccc1 [SW393069, N-(4-(5-benzamido-1-methyl-1H-pyrazol-3-yl)phenyl)-3-cyanobenzamide] | 15.2 µM | 17 µM | 7.43 µM | 12.7 µM | 
2 | Cn1nc(-c2ccc(NC(=O)c3ccccc3N=[N+]=[N-])cc2)cc1NC(=O)c1ccccc1 [SW393170, N-(4-(5-benzamido-1-methyl-1H-pyrazol-3-yl)phenyl)-2-azidobenzamide] | 0.93 µM | 0.03 µM | 0.12 µM | 0.84 µM | 
3 | C#CCOc1ccccc1C(=O)Nc1ccc(-c2cc(NC(=O)c3ccccc3)n(C)n2)cc1 [SW393168, N-(4-(5-benzamido-1-methyl-1H-pyrazol-3-yl)phenyl)-2-(prop-2-yn-1-yloxy)benzamide] | 2.95 µM | 0.34 µM | 1.02 µM | 3.23 µM | 
4 | C#Cc1ccc(C(=O)Nc2ccc(-c3cc(NC(=O)c4ccccc4)n(C)n3)cc2)cc1 [SW389007, N-(4-(5-Benzamido-1-methyl-1H-pyrazol-3-yl)phenyl)-4-ethynylbenzamide] | 5.22 µM | 2 µM | 4.8 µM | 4.42 µM | 
5 | COc1ccccc1C(=O)Nc1ccc(-c2cc(NC(=O)c3ccccc3)n(C)n2)cc1 [SW389001, N-(4-(5-Benzamido-1-methyl-1H-pyrazol-3-yl)phenyl)-2-methoxybenzamide] | 6.44 µM | 0.31 µM | 0.84 µM | 7 µM | 
6 | C#CCOc1cccc(C(=O)Nc2cc(-c3ccc(NC(=O)c4ccccc4Cl)cc3)nn2C)c1 [SW393125, 2-Chloro-N-(4-(1-methyl-5-(3-(prop-2-yn-1-yloxy)benzamido)-1H-pyrazol-3-yl)phenyl)benz-amide] | 0.07 µM | 0.012 µM | 0.03 µM | 0.07 µM | 
7 | C#Cc1cccc(C(=O)Nc2ccc(-c3cc(NC(=O)c4ccccc4)n(C)n3)cc2)c1 [SW389013, N-(4-(5-Benzamido-1-methyl-1H-pyrazol-3-yl)phenyl)-3-ethynylbenzamide] | 15.8 µM | 2.79 µM | 4.21 µM | 19.8 µM | 
8 | Cn1nc(-c2ccc(NC(=O)c3ccccc3[N+](=O)[O-])cc2)cc1NC(=O)c1ccccc1 [SW393143, N-(4-(5-benzamido-1-methyl-1H-pyrazol-3-yl)phenyl)-2-nitrobenzamide] | 0.12 µM | 0.01 µM | 0.02 µM | 0.14 µM | 
9 | Cn1nc(-c2ccc(NC(=O)c3ccncc3)cc2)cc1NC(=O)c1ccccc1 [SW393063, N-(4-(5-benzamido-1-methyl-1H-pyrazol-3-yl)phenyl)isonicotinamide] | 3.69 µM | 3.2 µM | 2.04 µM | 3.1 µM | 
10 | C#CCOc1ccc(C(=O)c2cccc(C(=O)Nc3cc(-c4ccc(NC(=O)c5ccccc5Cl)cc4)nn3C)c2)cc1 [SW393141, 2-Chloro-N-(4-(1-methyl-5-(3-(4-(prop-2-yn-1-yloxy)benzoyl)benzamido)-1H-pyrazol-3-yl)phenyl)benzamide] | 0.49 µM | 0.12 µM | 0.3 µM | 0.41 µM | 
11 | COc1ccccc1C(=O)Nc1cc(-c2ccc(NC(=O)c3ccccc3)cc2)nn1C [SW389006, N-(3-(4-Benzamidophenyl)-1-methyl-1H-pyrazol-5-yl)-2-methoxybenzamide] | 2.34 µM | 1.23 µM | 0.82 µM | 2.4 µM | 
12 | Cn1nc(-c2ccc(NC(=O)c3cc(N=[N+]=[N-])ccc3Cl)cc2)cc1NC(=O)c1ccccc1 [SW393171, 5-azido-N-(4-(5-benzamido-1-methyl-1H-pyrazol-3-yl)phenyl)-2-chlorobenzamide] | 2.78 µM | 0.19 µM | 0.49 µM | 2.33 µM | 
13 | Cn1nc(-c2ccc(NC(=O)c3ccccc3)cc2)cc1NC(=O)c1cccc(Cl)c1 [SW389161, N-(3-(4-benzamidophenyl)-1-methyl-1H-pyrazol-5-yl)-3-chlorobenzamide] | 11.7 µM | 1.27 µM | 1.06 µM | 8.26 µM | 
14 | Cn1nc(-c2ccc(NC(=O)c3ccccc3)cc2)cc1NC(=O)c1cccc(Br)c1 [SW389162, N-(3-(4-benzamidophenyl)-1-methyl-1H-pyrazol-5-yl)-3-bromobenzamide] | 3.14 µM | 0.335 µM | 0.32 µM | 2.6 µM | 

Further lines, results first:

Row | IC50 (HCT116 GCN2KO) | IC50 (HCT116 WT; [1]) | IC50 (HCT116 WT; [2]) | IC50 (HCT116 WT; [3]) | HCT116 IC50 (uM) HCT116 WT (HCT116 WT; wild type HCT116, 10-point dose response in triplicate, multiple values = separate independent experiments) | SMILES
15 | 3.23 µM | 3 µM | 3.73 µM | 3.26 µM |  | C#CCOc1cccc(C(=O)Nc2ccc(-c3cc(NC(=O)c4ccc(N=[N+]=[N-])cc4)n(C)n3)cc2)c1 [SW393065, N-(4-(5-(4-Azidobenzamido)-1-methyl-1H-pyrazol-3-yl)phenyl)-3-(prop-2-yn-1-yloxy)benza-mide]
16 | 1.31 µM | 0.208 µM | 0.2 µM | 1.73 µM |  | COC(=O)c1cccc(C(=O)Nc2cc(-c3ccc(NC(=O)c4ccccc4)cc3)nn2C)c1 [SW389153, Methyl 3-((3-(4-benzamidophenyl)-1-methyl-1H-pyrazol-5-yl)carbamoyl)benzoate]
17 | ≥ 50 µM |  | ≥ 50 µM |  | inactive | Cn1nc(-c2ccc(NC(=O)c3ccc(C#N)cc3)cc2)cc1NC(=O)c1ccccc1 [SW393061, N-(4-(5-benzamido-1-methyl-1H-pyrazol-3-yl)phenyl)-4-cyanobenzamide]
18 | 2.31 µM | 0.13 µM | 0.43 µM | 2.55 µM |  | Cn1nc(-c2ccc(NC(=O)c3c(Cl)cccc3Cl)cc2)cc1NC(=O)c1ccccc1 [SW393144, N-(4-(5-benzamido-1-methyl-1H-pyrazol-3-yl)phenyl)-2,6-dichlorobenzamide]
19 | 4.37 µM | 3.6 µM | 5.08 µM | 5.25 µM |  | Cn1nc(-c2ccc(NC(=O)c3ccccc3Cl)cc2)cc1NC(=O)c1cccc(C2(C(F)(F)F)N=N2)c1 [SW393172, 2-Chloro-N-(4-(1-methyl-5-(3-(3-(trifluoromethyl)-3H-diazirin-3-yl)benzamido)-1H-pyrazol-3-yl)phenyl)benzamide]
20 | ≥ 50 µM | 0.92 µM | 1.87 µM |  |  | COC(=O)c1ccc(C(=O)Nc2cc(-c3ccc(NC(=O)c4ccccc4)cc3)nn2C)cc1 [SW393130, methyl 4-((3-(4-benzamidophenyl)-1-methyl-1H-pyrazol-5-yl)carbamoyl)benzoate]
21 | 0.08 µM | 0.008 µM | 0.02 µM | 0.09 µM |  | Cn1nc(-c2ccc(NC(=O)c3ccccc3C(F)(F)F)cc2)cc1NC(=O)c1ccccc1 [SW393124, N-(4-(5-benzamido-1-methyl-1H-pyrazol-3-yl)phenyl)-2-(trifluoromethyl)benzamide]
22 | 2.54 µM | 0.788 µM | 0.38 µM | 2.59 µM |  | Cn1nc(-c2ccc(NC(=O)c3ccccc3)cc2)cc1NC(=O)c1cccc(F)c1 [SW389159, N-(3-(4-Benzamidophenyl)-1-methyl-1H-pyrazol-5-yl)-3-fluorobenzamide]
23 | 2.2 µM | 0.416 µM | 0.46 µM | 2.97 µM |  | Cn1nc(-c2ccc(NC(=O)c3ccccc3)cc2)cc1NC(=O)c1cccc(C(F)(F)F)c1 [SW389155, N-(3-(4-Benzamidophenyl)-1-methyl-1H-pyrazol-5-yl)-3-(trifluoromethyl)benzamide]
